Measured values published in PMC3726612, “Amiodarone Inhibits Apamin-Sensitive Potassium Currents” (PLoS ONE, 2013).

Columns and labels:
Assay type in all cases: cell-based
[1] = molecular target: T1, human small conductance Ca^2+-activated K^+ channel, subfamily N, member 2 (SK2) (Homo sapiens, UniProt Q9H2S1); assay: whole-cell patch clamp, HEK-293 cells expressing SK2; % inhibition at […]; details: HEK293
T1 construct: gene KCNN2; transcript variant 1 (NM_021614.2)

[2] = molecular target: T1, human small conductance Ca^2+-activated K^+ channel, subfamily N, member 2 (SK2); assay: whole-cell patch clamp, HEK-293 cells transiently expressing SK2; % inhibition at […]; details: HEK293
[3] = molecular target: T1, human small conductance Ca^2+-activated K^+ channel, subfamily N, member 2 (SK2); assay: whole-cell patch clamp, HEK-293 cells transiently expressing SK2
[4] = molecular target: T1, human small conductance Ca^2+-activated K^+ channel, subfamily N, member 2 (SK2); assay: whole-cell patch clamp, HEK-293 cells expressing SK2; % inhibition at […]; details: HEK293; read-out: % inhibition at 500 nM

T1 sequence (Q9H2S1 whole entry): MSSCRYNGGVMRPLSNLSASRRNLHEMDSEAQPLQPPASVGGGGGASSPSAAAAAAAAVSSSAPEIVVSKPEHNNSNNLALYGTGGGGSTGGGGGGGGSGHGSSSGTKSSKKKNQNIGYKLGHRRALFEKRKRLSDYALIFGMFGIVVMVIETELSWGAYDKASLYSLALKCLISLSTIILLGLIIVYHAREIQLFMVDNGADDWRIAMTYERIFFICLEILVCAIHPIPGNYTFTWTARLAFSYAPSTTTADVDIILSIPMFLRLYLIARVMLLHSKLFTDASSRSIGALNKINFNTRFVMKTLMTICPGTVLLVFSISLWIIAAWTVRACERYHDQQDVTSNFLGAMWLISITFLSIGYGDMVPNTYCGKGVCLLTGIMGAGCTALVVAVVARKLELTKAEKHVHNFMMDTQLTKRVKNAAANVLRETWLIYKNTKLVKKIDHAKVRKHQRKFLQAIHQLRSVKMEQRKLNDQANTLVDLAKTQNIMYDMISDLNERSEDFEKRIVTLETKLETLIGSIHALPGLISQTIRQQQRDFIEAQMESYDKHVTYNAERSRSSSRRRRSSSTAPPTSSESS

`CCS(=O)(=O)N(C)[C@H]1c2cc(C#N)ccc2OC(C)(C)[C@@H]1O` (racemic) [chromanol 293B] showed an inhibition at 100 µM [1] of 38.2 ± 15%.
`CCCCc1oc2ccccc2c1C(=O)c1cc(I)c(OCCNCC)c(I)c1` [DEA, desethylamiodarone] gave an inhibition at 20 µM [2] of 79%.
`CCCCc1oc2ccccc2c1C(=O)c1cc(I)c(OCCN(CC)CC)c(I)c1` [amiodarone] was tested, and the IC50 [3] was 2670 ± 250 nM.
Compound `Cc1cccc(CCN2CCC(C(=O)c3ccc(NS(C)(=O)=O)cc3)CC2)n1` [E-4031] has an inhibition at 0.5 µM [4] of 37.6 ± 14.9%.
